Our source for the IC50, Activity and concentration values is ChEMBL document CHEMBL2163207, “Predicting new indications for approved drugs using a proteochemometric method” (J Med Chem, 2012).

SMILES strings stand for the structures.

For one data set, the system named is MDA-MB-231. The data set can be described thus: Cytotoxicity against human MDA-MB-231 cells after 48 hrs by MTS assay. As to conditions: MDA-MB-231, 48 h. It is filed as functional, cell-based.
Data set [1] deals with T1, Cadherin-11 (Mus musculus) (UniProt P55288).
T1 sequence (whole entry): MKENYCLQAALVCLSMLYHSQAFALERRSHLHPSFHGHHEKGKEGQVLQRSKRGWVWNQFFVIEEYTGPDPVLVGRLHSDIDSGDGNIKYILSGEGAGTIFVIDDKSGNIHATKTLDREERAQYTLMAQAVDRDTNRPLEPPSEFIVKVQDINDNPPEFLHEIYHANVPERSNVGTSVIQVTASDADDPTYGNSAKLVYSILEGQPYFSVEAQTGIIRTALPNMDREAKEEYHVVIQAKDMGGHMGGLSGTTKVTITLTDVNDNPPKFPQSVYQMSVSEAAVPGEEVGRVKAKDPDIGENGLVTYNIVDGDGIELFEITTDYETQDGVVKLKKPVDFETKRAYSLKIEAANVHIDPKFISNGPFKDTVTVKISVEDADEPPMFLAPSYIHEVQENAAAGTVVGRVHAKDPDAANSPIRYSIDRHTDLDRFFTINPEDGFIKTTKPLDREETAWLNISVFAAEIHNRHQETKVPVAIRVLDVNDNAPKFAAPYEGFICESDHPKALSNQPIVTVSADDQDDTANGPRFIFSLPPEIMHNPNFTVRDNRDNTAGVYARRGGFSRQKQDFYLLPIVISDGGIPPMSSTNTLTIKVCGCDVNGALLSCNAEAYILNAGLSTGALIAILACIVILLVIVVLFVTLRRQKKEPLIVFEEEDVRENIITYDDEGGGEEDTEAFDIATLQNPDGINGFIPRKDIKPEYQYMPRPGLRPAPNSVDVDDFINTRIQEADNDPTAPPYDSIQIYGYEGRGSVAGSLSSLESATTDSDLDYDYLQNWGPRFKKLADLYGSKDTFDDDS
The data set can be described thus: Binding affinity to mouse recombinant CDH11 extracellular domain 1-2 by surface plasmon resonance.

The subject of data set [2] is Plasma. The data set can be described thus: Plasma concentration in human. In kind it is ADME, cell-free.
For data set [3], the system named is Plasma. Nature of the data set: Plasma concentration in rat. In kind it is ADME, cell-free.

As to `Cc1ccc(C)c(-c2cc(C(F)(F)F)nn2-c2ccc(S(N)(=O)=O)cc2)c1` [DIMETHYL CELECOXIB], the 50% inhibitory concentration (IC50) with MDA-MB-231 worked out at 36 µM. Further, in data set [1], the Activity entry was “Dose-dependent effect”.
In the case of `Cc1ccc(-c2cc(C(F)(F)F)nn2-c2ccc(S(N)(=O)=O)cc2)cc1` [CELECOXIB], the concentration in the data set on Plasma [2] and in the data set with Plasma [3] was 1000 nM each time. The molecule further yielded an IC50 with MDA-MB-231 of 40 µM. Besides, the Activity entry in data set [1] is “Dose-dependent effect”.
